From a melting point compilation (Tetko et al.; mined from patent text by program, amines drawn as free bases though some values may be those of a salt)

melting point [°C] | SMILES
202 to 204 | Cc1cccc2ncc(C(=O)Nc3ccc(Cl)cc3)c(=O)n12
85 to 87 | O=C(O)C(CCc1ccccc1)Oc1c(Br)cc(-c2ccc(-c3c(Cc4ccccc4)sc4ccccc34)cc2)cc1Br (stereo not given)
> 260 | CCCCc1cn(Cc2ccc(-c3ccccc3C(=O)O)cc2)c2cc(C(=O)O)ccc2c1=O
72 | COc1ccc(C(=O)CC(=O)C(F)(F)C(F)(F)F)cc1OC
246 | O=c1oc2cc(N3CCN(CCF)CC3)ccc2cc1-c1nc2ccccc2s1
169 to 172 | CN(CCCCC(=O)N1CCN(c2nc3cc(C(=O)Nc4nc(C(C)(C)C)cs4)ccn3c(=O)c2/C=C/C(=O)O)CC1)CC(=O)O
184 to 186 | CN1CCN(c2cccc3c2C[C@H](NC(=O)c2ccc(C#N)cc2)CC3)CC1
182 to 183 | COC(=O)c1ccccc1S(=O)(=O)NC(=O)Nc1nc(C)c2ccccc2n1
103 | COC(=O)Cc1sc(=O)[nH]c1COc1ccccc1
152 to 153 | COC(=O)c1nc(-c2ccc(F)c(C)c2F)cc(NC(C)=O)c1Cl
130 | CNc1cc(O)cc(O)c1
73 to 75 | COC(=O)CCC(=O)Oc1c(C)c(C)c2c(c1C)SC(C)O2 (stereo not given)
123 to 125 | O=C(O)CCc1nc2c(F)c(F)cc(F)c2s1
150 to 152 | CC(C)n1cnc2c(Nc3ccccn3)nc(F)nc21
46 to 47 | CCN(CC)C(=O)c1ccccc1-c1ccc(OC)cc1
252 to 254 | COc1ccc2c(c1)CCC(NC(C)=O)(C(=O)O)C2 (stereo not given)
196 to 198 | COc1ccc(C=C(NC(=O)c2ccccc2)C(=O)O)cc1OC

melting point [°C] | SMILES
229 | O=C(O)c1cc(Cl)c(Cl)c(-c2ccc(Cl)cc2)n1
101 | O=C(OCc1ccccc1)[C@@H]1CCC(=O)N1C(=O)c1ccccc1
69.2 to 70.4 | OCCCc1ccc(OCCN2CCOCC2)cc1Oc1ncc(C(F)(F)F)cc1Cl
146 to 152 | COc1ccc(-c2sc3cc(OC)ccc3c2C(=O)c2c(OC)cccc2OC)cc1
66 to 68 | CC(=O)OCc1ccc(C=Cc2csc3ccccc23)s1
175 to 176 | CC(C)c1cccc(C(C)C)c1NC(=O)NCCN1CCN(CCSc2nc3ncccc3o2)CC1
183 to 185 | CC(C)(C)Nc1c(Nc2ccc3cn[nH]c3c2)c(=O)c1=O
186 to 188 | CCCc1nc2cnc3ccccc3c2n1CCC1(O)CCOCC1
232 to 233 | Cc1cc(-c2nc3cccnn3c2-c2ccnc(NC(=O)NC(C)C)c2)ccc1F
136 to 138 | CSC1C(=O)Nc2ccc(C(F)(F)F)cc21 (stereo not given)
144 to 146 | O=C(c1ccccc1)n1c(=O)c(C(F)(F)F)cn(C2CC(O)C(CO)O2)c1=O (stereo not given)
267 to 270 | O=c1[nH]c2cc(Cl)cc(Cl)c2c(=O)n1Cc1cccc(F)c1
214 | COc1ccc(Nc2c(N)cc(C(=O)O)cc2S(N)(=O)=O)cc1
206 | FC(F)(F)c1cc(-c2ccc(Cl)cc2)nc2c(-c3cccnc3)ncn12
150 to 160 | Nc1sc(CC(C(=O)O)C(=O)O)cc1C(=O)c1ccccc1Cl
142 to 144 | C=C(C)c1ccc2occ(C#N)c(=O)c2c1

SMILES | melting point [°C]
CNC(=O)ON=C1Oc2ccccc2OC1(C)C | 174 to 176
Cc1cccc(NC2=NCCO2)c1C | 112 to 114
